Assay results taken from patent US10695366B2 (ZS PHARMA, INC., priority 2013, dated 2020).

Tested on: beagles
Settings: dog, in vivo
Description: The following 14-day study is designed to show the effect of particle size and particle form on the urinary pH and presence of crystals in the urine. The compounds above are administered to beagles orally by mixing with wet dog food. The regimen is administered 3 times a day at 6 hour intervals over a 12 hour period in the following manner:
The dose levels were 100 or 600 mg/kg/dose.

microporous zirconium silicate [ZS-9]
test article-related findings (direct or indirect), microscopic: not present
